Target: T1, endogenous hCBS in HepG2 cells (Homo sapiens, UniProt P35520)
T1 construct: effects of CH004 on the activity of endogenous CBS by incubating with HepG2; endogenous in cells; host or cells: HepG2
T1 sequence (P35520 1-551): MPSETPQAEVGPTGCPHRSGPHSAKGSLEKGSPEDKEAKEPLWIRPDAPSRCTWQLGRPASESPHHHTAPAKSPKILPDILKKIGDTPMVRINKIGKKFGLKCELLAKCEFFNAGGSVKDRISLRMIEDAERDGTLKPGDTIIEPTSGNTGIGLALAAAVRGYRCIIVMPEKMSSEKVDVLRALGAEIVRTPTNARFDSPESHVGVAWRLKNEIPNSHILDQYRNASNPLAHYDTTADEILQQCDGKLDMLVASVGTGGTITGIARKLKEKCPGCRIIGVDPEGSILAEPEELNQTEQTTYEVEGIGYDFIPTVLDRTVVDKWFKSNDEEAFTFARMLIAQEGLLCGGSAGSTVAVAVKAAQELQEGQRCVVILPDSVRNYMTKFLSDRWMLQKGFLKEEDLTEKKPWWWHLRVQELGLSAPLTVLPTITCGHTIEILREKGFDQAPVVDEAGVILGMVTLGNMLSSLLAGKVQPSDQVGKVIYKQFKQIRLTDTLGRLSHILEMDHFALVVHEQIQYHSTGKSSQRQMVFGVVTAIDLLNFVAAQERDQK
Assay: endogenous H2S in HepG2 cells (AzMC probe)
Format: cell-based
Conditions: for decrease in H2S: HepG2
Procedure: Fig. 3 The effect of CH004 on the activity of endogenous hCBS in cells. a CH004 dose-dependently elevates the levels of Hcys in HepG2 and HEK293T cells. HepG2 cells or HEK293T cells were incubated with indicated CH004 or DMSO (control) for 12 h. The amount of total Hcys in cells was measured by ELISA using Axis® Homocysteine EIA kit (IBL, AX51301) (“Materials and Methods” section). […] HepG2 cells were treated with indicated DMSO, CH004 or HA for 8 h before the staining with AzMC probe. The amount of the H2S (blue) was quantified and is shown in (c). Bars, 50 μm. Control (CTR), DMSO group (100%). A representative fluorescence image from three independent experiments is shown. Means ± SDS (n = 3). d CH004 elevates Hcys in the peripheral blood of rats. The total Hcys of the blood samples collected from the anesthetized rats at the 75 min time point (Materials and Methods) were quantified by ELISA (see above). Means ± SDS (n = 6).
H2S levels in living cells were detected using a H2S-specific fluorescent probe according to a protocol described previously[31],[55]. To measure H2S in transiently transfected HEK293T cells, the cells were seeded on poly-D-Lys-coated coverslips (Thermo Scientific, Waltham, MA, USA) in 12-well plates at a density of ~ 1 × 10^5 cells per well, and hCBS or hCSE plasmids were transiently transfected by X-tremeGENE HP DNA Transfection Reagent according to the manufacturer’s protocol (Roche, Basel, Switzerland). After 24 h, the transfected cells were treated with DMSO or inhibitors for another 8 h, followed by staining with 7-azide-4-methylcoumarin (AzMC; Sigma-Aldrich). Similarly, HEK293T cells stably expressing CBS WT, Q222A mutant or EV were seeded on poly-D-Lys-coated coverslips in 12-well plates for one day before treatment with DMSO or inhibitors for 8 h. After incubation with 50 μM AzMC at 37 °C for 30 min, the cells were washed 4 times with PBS, and the fluorescent images were recorded with excitation by 405 nm laser by using a A1Si (Nikon) confocal microscope. The intensity of the blue fluorescent signals, indicating the amount of H2S, was quantified by ImageJ software (NIH, Bethesda, ML). The H2S signal was then corrected for the background signal detected in HEK293T cells transiently or stably expressing of empty vector (HEK293T-EV) and normalized by the corresponding cell-occupying area and compared with the control (DMSO group, 100%). Similarly, the H2S signal in HepG2 cells was quantified by AzMC staining, corrected for the background signal outside the cells, normalized by the cell area and expressed as percentages of DMSO control (100%).
To elucidate the subcellular localization of H2S, HepG2 cells were seeded on poly-D-Lys-coated coverslips in 12-well plates. After treatment with DMSO or inhibitors for 8 h, cells were sequentially incubated with 200 nM Mito-Tracker® Green and 50 μM AzMC for 30 min at 37 °C in PBS, and then fluorescent images were taken using a confocal microscope.
Figure S9. The effect of AOAA on the level of endogenous H2S in HepG2 cells. […] HepG2 cells were incubated with 0 (DMSO control), 1, 5 or 10 mM AOAA for 8 h before staining with 50 μM AzMC. Upper panels, the overlaid images; middle panels, the corresponding fluorescent images (blue, H2S); the lower panels, the bright-field images. Bars: 50 μm. (B) Quantification of the mean fluorescent density of H2S (blue). The intensity of H2S was accordingly quantified and normalized by correcting for the background signal outside cells. Data was expressed as percentages of the control (DMSO group, 100%). Means ± SDs (n=3). One-way ANOVA with Bonferroni post-tests was used for the analysis. *, p< 0.05; ***, p< 0.001; n.s. no significance. The images are one representative from three independent experiments.

Cn1nc(Cc2ccccc2)nc2c(=O)n(C)c(=O)nc1-2 [CH004, 3-benzyl-1,6-dimethylpyrimido[5,4-e][1,2,4]triazine-5,7(1H,6H)-dione]
decrease in H2S (5 μM, 8 h): ~ 50% | decrease in H2S (20 μM, 8 h): ~ 90% | mitochondrial H2S (8 h, Mito-tracker Green and AzMC): dose-dependently decreases | potency on inhibiting production of H2S in cells compared with AOAA (CH004 vs AOAA): at least 1000 fold

— article PMC6158189, “A pharmacological probe identifies cystathionine β-synthase as a new negative regulator for ferroptosis” (Cell Death & Disease, 2018)
